Laboratory results: patent US5043450A, “8-alkoxyquinolonecarboxylic acid and salts thereof” (priority 1986, dated 1991)
In brackets after ≈: the same amount, converted by molar mass. Like-named read-outs stand apart in the source and are kept apart here.

Assays:
Type in all cases: cell-based
[1] = tested on: Bacilus subtilis PCI 219; assay: Antibacterial spectra, MIC; details: Bacillus subtilis, PCI219
[2] = tested on: Staphylococcus aureus 209 P; assay: Antibacterial spectra, MIC
[3] = tested on: S. aureus IID 670 (Terajima); assay: Antibacterial spectra, MIC; details: Staphylococcus aureus, IID670
[4] = tested on: S. aureus Smith; assay: Antibacterial spectra, MIC; details: Staphylococcus aureus
[5] = tested on: S. epidermidis IID 866; assay: Antibacterial spectra, MIC; details: Staphylococcus epidermidis, IID866
[6] = tested on: E. coli ML 4707; assay: Antibacterial spectra, MIC; details: Escherichia coli, ML4707; 10^6 cells/ml; Gram -
Protocol: (§1) The antibacterial test was carried out according to the method designated by Japan Society of Chemotherapy.

[7] = tested on: Proteus vulgaris IFO 3167; assay: Antibacterial spectra, MIC; details: IFO3167, 10^6 cells/ml, Gram -
Protocol: as §1

[8] = tested on: Shigella sonnei IID 969; assay: Antibacterial spectra, MIC; details: IID969, 10^6 cells/ml, Gram -
Protocol: as §1

[9] = tested on: Escherichia coli NIHJ JC-2; assay: Antibacterial spectra, MIC
[10] = tested on: E. coli ATCC 10536; assay: Antibacterial spectra, MIC; details: Escherichia coli, ATCC10536
[11] = tested on: P. mirabilis IID 994; assay: Antibacterial spectra, MIC; details: Proteus mirabilis, IID994
[12] = tested on: Morganella morganii IID 602; assay: Antibacterial spectra, MIC
[13] = tested on: Klebsiella pneumoniae KY(GN)6445; assay: Antibacterial spectra, MIC
[14] = tested on: K. pneumoniae 1-220S; assay: Antibacterial spectra, MIC; details: Klebsiella pneumoniae, 1220S
[15] = tested on: Enterobacter cloacae IID 977; assay: Antibacterial spectra, MIC
[16] = tested on: Citrobacter freundii IID 976; assay: Antibacterial spectra, MIC; details: IID976, 10^6 cells/ml, Gram -, read-out: MIC
[17] = tested on: Serratia marcescens IID 618; assay: Antibacterial spectra, MIC
[18] = tested on: Salmonella enteritidis IID 604; assay: Antibacterial spectra, MIC; details: Salmonella enterica
[19] = tested on: Pseudomonas aeruginosa V-1; assay: Antibacterial spectra, MIC
[20] = tested on: P. aeruginosa IFO 12689; assay: Antibacterial spectra, MIC; details: Pseudomonas aeruginosa, IFO12689; 10^6 cells/ml; Gram -; read-out: MIC
[21] = tested on: P. aeruginosa IID 1210; assay: Antibacterial spectra, MIC; details: Pseudomonas aeruginosa, IID1210
[22] = tested on: P. cepacia GIFU 518; assay: Antibacterial spectra, MIC; details: Burkholderia cepacia, GIFU518
[23] = tested on: P. maltophilia GIFU 2491; assay: Antibacterial spectra, MIC; details: Stenotrophomonas maltophilia, GIFU2491
[24] = tested on: Yersinia enterocolitica IID 981; assay: Antibacterial spectra, MIC
[25] = tested on: Acinetobacter anitratus IID 876; assay: Antibacterial spectra, MIC; details: Acinetobacter calcoaceticus, IID876
[26] = tested on: Alcaligenes faecalis 0114002; assay: Antibacterial spectra, MIC
[27] = tested on: Bacteroides fragilis GM 7000; assay: Antibacterial spectra, MIC
[28] = tested on: B. fragilis 0558; assay: Antibacterial spectra, MIC; details: Bacteroides fragilis
[29] = tested on: B. fragilis 25285; assay: Antibacterial spectra, MIC; details: Bacteroides fragilis
[30] = tested on: B. distasonis 8503; assay: Antibacterial spectra, MIC; details: Parabacteroides distasonis
[31] = tested on: B. thetaiotaomicron (0661); assay: Antibacterial spectra, MIC; details: Bacteroides thetaiotaomicron
[32] = tested on: B. vulgatus KYA 29327; assay: Antibacterial spectra, MIC; details: Phocaeicola vulgatus, KYA29327
[33] = tested on: Fusobacterium mortiferum 4249; assay: Antibacterial spectra, MIC
[34] = tested on: F. necrophorum S-45; assay: Antibacterial spectra, MIC; details: Fusobacterium necrophorum, S45
[35] = tested on: F. varium KYA 8501; assay: Antibacterial spectra, MIC; details: Fusobacterium varium, KYA8501
[36] = tested on: Eubacterium lentum GAI 5242; assay: Antibacterial spectra, MIC; details: Eggerthella lenta, GAI5242
[37] = tested on: Propionibacterium acens 11828; assay: Antibacterial spectra, MIC
[38] = tested on: Peptococcus magnus KY 017; assay: Antibacterial spectra, MIC; details: Finegoldia magna, KY017
[39] = tested on: Clostridium difficile I-E; assay: Antibacterial spectra, MIC; details: Clostridioides difficile
[40] = tested on: C. perfringens KYA 13123; assay: microbe, parasite or virus in culture; details: Clostridium perfringens, KYA13123
[41] = tested on: C. ramosum; assay: Antibacterial spectra, MIC; details: Thomasclavelia ramosa
[42] = tested on: Peptostreptococcus anaerobius KYA 27337; assay: Antibacterial spectra, MIC; details: KYA27337
[43] = tested on: Pst. micros UPI 5464-1; assay: Antibacterial spectra, MIC; details: Parvimonas micra, UPI54641
[44] = tested on: Veillonella parvula KYA 10790; assay: Antibacterial spectra, MIC
[45] = tested on: E. faecalis IID 682; assay: Antibacterial spectra, MIC; details: Enterococcus faecalis, IID682; 10^6 cells/ml; Gram +
Protocol: as §1

[46] = tested on: Streptococcus pyogenes (S-8); assay: Antibacterial spectra, MIC; details: 10^6 cells/ml, Gram +
Protocol: as §1

[47] = tested on: S. pyogenes IID 692; assay: Antibacterial spectra, MIC; details: Streptococcus pyogenes, IID692
[48] = tested on: S. pneumoniae IID 552; assay: Antibacterial spectra, MIC; details: Streptococcus pneumoniae, IID552
[49] = 10^6 cells/ml, Gram +, read-out: MIC
[50] = 10^6 cells/ml, Gram -, read-out: MIC

COc1c(N2CCNCC2)c(F)cc2c(=O)c(C(=O)O)cn(C3CC3)c12 [Exp. 1]
MIC [1, 49]: 0.025 mg/L (≈ 0.0692 µM) | MIC [2, 49]: 0.1 mg/L (≈ 0.277 µM) | MIC [3, 49]: 0.1 mg/L (≈ 0.277 µM) | MIC [4, 49]: 0.1 mg/L (≈ 0.277 µM) | MIC [5, 49]: 0.1 mg/L (≈ 0.277 µM) | MIC [6]: 0.025 mg/L (≈ 0.0692 µM) | MIC [7]: 0.0125 mg/L (≈ 0.0346 µM) | MIC [8]: 0.0125 mg/L (≈ 0.0346 µM) | MIC ([9]; NIHJJC2, 10^6 cells/ml, Gram -, read-out: MIC): ≤ 0.0063 mg/L | MIC [10, 50]: 0.025 mg/L (≈ 0.0692 µM) | MIC [11, 50]: 0.025 mg/L (≈ 0.0692 µM) | MIC ([12]; IID602, 10^6 cells/ml, Gram -, read-out: MIC): 0.05 mg/L (≈ 0.138 µM) | MIC [13, 50]: 0.025 mg/L (≈ 0.0692 µM) | MIC [14, 50]: 0.05 mg/L (≈ 0.138 µM) | MIC ([15]; IID977, 10^6 cells/ml, Gram -, read-out: MIC): 0.05 mg/L (≈ 0.138 µM) | MIC [16]: 0.025 mg/L (≈ 0.0692 µM) | MIC ([17]; IID618, 10^6 cells/ml, Gram -, read-out: MIC): 0.05 mg/L (≈ 0.138 µM) | MIC [18, 50]: 0.05 mg/L (≈ 0.138 µM) | MIC ([19]; V1, 10^6 cells/ml, Gram -, read-out: MIC): 0.1 mg/L (≈ 0.277 µM) | MIC [20]: 0.78 mg/L (≈ 2.16 µM) | MIC [21]: 0.39 mg/L (≈ 1.08 µM) | MIC [22, 50]: 0.78 mg/L (≈ 2.16 µM) | MIC [23]: 0.39 mg/L (≈ 1.08 µM) | MIC ([24]; IID981, 10^6 cells/ml, Gram -, read-out: MIC): 0.05 mg/L (≈ 0.138 µM) | MIC [25, 50]: 0.1 mg/L (≈ 0.277 µM) | MIC [26, 50]: 0.2 mg/L (≈ 0.553 µM) | MIC ([27]; GM7000, 10^6 cells/ml, Gram -, read-out: MIC): 0.78 mg/L (≈ 2.16 µM) | MIC [28]: 0.39 mg/L (≈ 1.08 µM) | MIC [29]: 0.39 mg/L (≈ 1.08 µM) | MIC [30, 50]: 1.56 mg/L (≈ 4.32 µM) | MIC [31, 50]: 1.56 mg/L (≈ 4.32 µM) | MIC [32, 50]: 0.78 mg/L (≈ 2.16 µM) | MIC [33]: 0.39 mg/L (≈ 1.08 µM) | MIC [34]: 0.39 mg/L (≈ 1.08 µM) | MIC [35]: 3.13 mg/L (≈ 8.66 µM) | MIC [36, 49]: 0.2 mg/L (≈ 0.553 µM) | MIC [37]: 3.13 mg/L (≈ 8.66 µM) | MIC [38, 49]: 0.2 mg/L (≈ 0.553 µM) | MIC [39]: 3.13 mg/L (≈ 8.66 µM) | MIC [40]: 0.39 mg/L (≈ 1.08 µM) | MIC [41]: 3.13 mg/L (≈ 8.66 µM) | MIC [42]: 0.39 mg/L (≈ 1.08 µM) | MIC [43, 49]: 0.2 mg/L (≈ 0.553 µM) | MIC ([44]; KYA10790, 10^6 cells/ml, Gram -, read-out: MIC): 0.2 mg/L (≈ 0.553 µM)

CCNCC1CCN(c2c(F)cc3c(=O)c(C(=O)O)cn(C4CC4)c3c2OC)C1 (stereo not shown) [Exp. 9, 1-cyclopropyl-7-(3-ethylaminomethyl-1-pyrrolidinyl)-6-fluoro-1,4-dihydro-8-methoxy-4-oxo-3-quinolinecarboxylic acid]
MIC [1]: 0.0063 mg/L (≈ 0.0156 µM) | MIC [2]: 0.0125 mg/L (≈ 0.031 µM) | MIC [3]: 0.0125 mg/L (≈ 0.031 µM) | MIC [4]: 0.0125 mg/L (≈ 0.031 µM) | MIC [5]: 0.025 mg/L (≈ 0.062 µM) | MIC [6]: 0.025 mg/L (≈ 0.062 µM) | MIC [45]: 0.05 mg/L | MIC [7]: 0.025 mg/L (≈ 0.062 µM) | MIC [8]: 0.025 mg/L (≈ 0.062 µM) | MIC [46]: 0.025 mg/L | MIC [47]: 0.05 mg/L (≈ 0.124 µM) | MIC [48]: 0.025 mg/L (≈ 0.062 µM) | MIC ([9]; NIHJJC2): 0.0063 mg/L (≈ 0.0156 µM) | MIC [10]: 0.025 mg/L (≈ 0.062 µM) | MIC [11]: 0.025 mg/L (≈ 0.062 µM) | MIC ([12]; IID602): 0.2 mg/L (≈ 0.496 µM) | MIC [13]: 0.05 mg/L (≈ 0.124 µM) | MIC [14]: 0.1 mg/L (≈ 0.248 µM) | MIC ([15]; IID977): 0.1 mg/L (≈ 0.248 µM) | MIC [16]: 0.055 mg/L (≈ 0.136 µM) | MIC ([17]; IID618): 0.1 mg/L (≈ 0.248 µM) | MIC [18]: 0.05 mg/L (≈ 0.124 µM) | MIC ([19]; V1): 0.39 mg/L (≈ 0.967 µM) | MIC [20]: 1.56 mg/L (≈ 3.87 µM) | MIC [21, 50]: 6.25 mg/L (≈ 15.5 µM) | MIC [22]: 0.78 mg/L (≈ 1.93 µM) | MIC [23]: 0.2 mg/L (≈ 0.496 µM) | MIC ([24]; IID981): 0.1 mg/L (≈ 0.248 µM) | MIC [25]: 0.05 mg/L (≈ 0.124 µM) | MIC [26]: 0.78 mg/L (≈ 1.93 µM) | MIC ([27]; GM7000): 0.1 mg/L (≈ 0.248 µM) | MIC [28]: 0.1 mg/L (≈ 0.248 µM) | MIC [29]: 0.1 mg/L (≈ 0.248 µM) | MIC [30]: 0.78 mg/L (≈ 1.93 µM) | MIC [31]: 0.78 mg/L (≈ 1.93 µM) | MIC [32]: 0.39 mg/L (≈ 0.967 µM) | MIC [33]: 0.2 mg/L (≈ 0.496 µM) | MIC [34]: 0.2 mg/L (≈ 0.496 µM) | MIC [35, 50]: 1.56 mg/L (≈ 3.87 µM) | MIC [36]: 0.1 mg/L (≈ 0.248 µM) | MIC [37, 49]: 1.56 mg/L (≈ 3.87 µM) | MIC [38]: ≤ 0.05 mg/L | MIC [40]: ≤ 0.05 mg/L | MIC [41]: 0.2 mg/L (≈ 0.496 µM) | MIC [42]: ≤ 0.05 mg/L | MIC [43]: 0.39 mg/L (≈ 0.967 µM) | MIC ([44]; KYA10790): 0.39 mg/L (≈ 0.967 µM)
